Measured values: patent US8268869B2, “Vinyl indazolyl compounds” (Eli Lilly and Company, priority 2009, dated 2012)

Experiments:
[1] = tested on: FGF9 induced ERK phosphorylation in Human RT112 bladder carcinoma cells; assay: FGF9 induced p-ERK with BSA in RT112 cells; assay type: cell-based; details: RT-112, relative IC50, RT112 cells, 20 mg/mL BSA, 500 ng/mL FGF9
Procedure: Human RT112 bladder carcinoma cells are seeded at a density of 5,000 cells per well in 100 μL RPMI 1640 (Gibco 11875-085) supplemented with 10% fetal bovine serum (FBS, Gibco 10082-147) and 1% of a penicillin/streptomycin solution (Gibco 15140-122) in CELLBIND® 96 well plates (Corning 3340) and incubated overnight at 37° C. The next morning the growth medium is removed and replaced with 100 μL RPMI 1640 supplemented with 20 mg/mL bovine serum albumin (BSA). After 3 hours of incubation at 37° C., 20 μL of 3× serially diluted compounds in RPMI 1640 with 20 mg/mL BSA in 6% DMSO are added to each well. This yielded a 10 point dose-response curve ranging from 10-0.005 μM in 1% DMSO. The incubation is continued for 1 hour at 37° C. The cells are stimulated with 50 μL of a […] FGF9 (R&D Systems 273-F9) solution in serum free RPMI to give a final concentration of 500 ng/mL FGF9. Cells are fixed by the addition of 30 μL of a 25% formaldehyde solution in phosphate buffered saline (PBS) (3.7% formaldehyde final concentration), and incubated 30 minutes at RT. Cells are washed 3× with PBS, followed by the addition of 100 μL of cold methanol and incubated for 30 minutes at −20° C. The methanol is removed and the cells are treated with PBS containing 0.1% TRITON® X-100 (PBST), washed 3× with PBS, and incubated 15 minutes at RT. […]

[2] = tested on: FGF receptor 1 (b-FGF induced pERK in HUVEC); assay: AlphaScreen SureFire Detection of ERK phosphorylation (Thr202/Tyr204) in HUVEC; assay type: cell-based; details: Homo sapiens, b-FGF 50 ng/mL, 20 mg/mL BSA
Procedure: The effect of compounds on the inhibition of FGF receptor 1 is measured by monitoring the phosphorylation of ERK (pERK) in response to basic-Fibroblast growth factor (b-FGF) stimulation in Human Umbilical Endothelial cells (HUVEC). The levels of pERK formed are measured using the ALPHASCREEN® […]® system (TGR Biosciences, TGRES50K). This is a homogeneous assay format utilizing the immuno-sandwich capture of the phosphorylated analyte followed by detection using antibody-coated ALPHASCREEN® beads (Perkin Elmer) to generate an amplified signal.
HUVEC cells are recovered and maintained in growth medium consisting of endothelial cell basal medium (Clonetics, CC-3132) supplemented with 10% FBS 0.4% bovine brain extract 0.1% hydrocortisone, 0.1% gentamicin sulfate amphotericin-B (GA-1000), and 0.1% epidermal growth factor, human recombination until passage 7. For the assay, cells are harvested by standard procedures and then counted. Cells (20,000/well) are plated in 100 μL of growth medium into 96 well Poly-D-Lysine coated plates (BD, 354640). Plates are incubated overnight at 37° C., 5% CO2.
On the day of the assay, cells are serum starved in 100 μL EBM (endothelial cell basal) medium containing 1.5% FBS and 20 mg/mL BSA for 3 hours at 37° C., 5% CO2, then treated with 20 μL of 3× serially diluted compounds in starvation medium for 1 hour at 37° C. […]

Kdr = target: T1, Kdr (Mus musculus, UniProt P35918); assay: In vivo Kdr target inhibition assay (VEGF induced phospho-Kdr in mouse heart); details: female nude mice, oral gavage, VEGF i.v., heart tissue
T1 construct: Heart tissues are collected and homogenized as described above; from tissue; host or cells: heart of female nude mice (CD1/nu/nu)
T1 sequence (P35918 20-1345): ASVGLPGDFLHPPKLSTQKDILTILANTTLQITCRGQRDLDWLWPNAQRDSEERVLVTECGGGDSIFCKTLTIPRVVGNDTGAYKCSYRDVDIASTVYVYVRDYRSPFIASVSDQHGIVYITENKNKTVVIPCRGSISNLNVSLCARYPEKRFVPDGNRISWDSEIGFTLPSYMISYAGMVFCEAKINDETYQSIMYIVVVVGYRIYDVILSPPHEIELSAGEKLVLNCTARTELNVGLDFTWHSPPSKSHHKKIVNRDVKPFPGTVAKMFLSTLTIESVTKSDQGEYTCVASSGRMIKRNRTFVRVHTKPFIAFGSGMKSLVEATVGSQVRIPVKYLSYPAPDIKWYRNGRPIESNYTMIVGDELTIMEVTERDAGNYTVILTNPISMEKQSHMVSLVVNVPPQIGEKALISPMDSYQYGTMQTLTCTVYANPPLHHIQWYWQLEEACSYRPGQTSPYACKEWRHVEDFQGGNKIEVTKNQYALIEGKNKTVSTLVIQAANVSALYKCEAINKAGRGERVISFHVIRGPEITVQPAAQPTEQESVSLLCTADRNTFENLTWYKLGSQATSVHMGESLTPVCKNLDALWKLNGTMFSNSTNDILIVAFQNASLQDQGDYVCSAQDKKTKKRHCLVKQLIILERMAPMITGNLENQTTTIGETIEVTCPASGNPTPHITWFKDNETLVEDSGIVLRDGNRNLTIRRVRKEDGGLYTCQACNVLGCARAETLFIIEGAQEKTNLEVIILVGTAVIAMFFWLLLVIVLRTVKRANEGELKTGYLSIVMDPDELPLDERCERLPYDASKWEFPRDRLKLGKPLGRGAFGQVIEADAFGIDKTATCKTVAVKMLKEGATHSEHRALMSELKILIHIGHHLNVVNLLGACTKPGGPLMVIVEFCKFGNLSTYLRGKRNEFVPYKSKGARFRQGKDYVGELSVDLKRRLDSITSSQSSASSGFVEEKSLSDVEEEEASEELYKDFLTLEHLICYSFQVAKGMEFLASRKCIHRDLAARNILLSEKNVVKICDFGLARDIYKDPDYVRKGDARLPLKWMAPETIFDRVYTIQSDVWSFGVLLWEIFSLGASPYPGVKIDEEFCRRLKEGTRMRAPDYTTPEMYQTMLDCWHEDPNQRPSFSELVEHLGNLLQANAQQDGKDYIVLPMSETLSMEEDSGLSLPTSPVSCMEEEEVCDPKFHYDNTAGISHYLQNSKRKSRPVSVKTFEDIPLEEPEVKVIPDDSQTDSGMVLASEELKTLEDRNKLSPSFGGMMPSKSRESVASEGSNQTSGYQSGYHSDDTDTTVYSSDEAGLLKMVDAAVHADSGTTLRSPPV
Procedure: To assess the activity of this compound against Kdr, female nude mice (CD1/nu/nu) are acclimated and treated as described above except VEGF is used to induce Kdr autophosphorylation {VEGF (6 ug/animal, R & D Systems 493-MV/CF). Heart tissues are collected and homogenized as described above. The resulting homogenates are analyzed using MSD® phospho-Kdr ELISA (Meso Scale Discovery, catalog number N41ZA-1) to determine tissue phospho-Kdr level. […] The positive control group is treated with VEGF […]) in saline administered intravenously (as minimum p-KDR inhibition of 0%).

[3] = tested on: Human bladder cancer cells RT112; assay: Xenograft tumor model RT-112 (bladder); assay type: in vivo, nude mice; details: oral gavage
Source text: (§1) One of Human bladder cancer cells RT112 (European Collection of Cell Cultures), human multiple myeloma cells OPM-2 (German Collection of Microorganisms and Cell Cultures), human non-small cell lung cancer (NSCL) cells NCI-H460 (American Type Culture Collection), human pancreatic cancer cells BxPC-3 (American Type Culture Collection) or human gastric cancer cells SNU-16 (American Type Culture Collection) are expanded in culture, according to KOREAN CELL LINE BANK (KCLB) recommendations, harvested and injected subcutaneously onto the rear flank of nude mice. When tumors are established (7-21 days after implant), animals are randomized and grouped into control and test groups. Test compound is prepared in an appropriate vehicle (i.e. formulated in 10% Acacia), and the test compound and a vehicle control are administered by oral gavage. Tumor response is determined by tumor volume measurement performed twice a week during the course of treatment and reported as percent inhibition of tumor volume versus the vehicle control group.

[4] = tested on: human gastric cancer cells SNU-16; assay: Xenograft tumor model SNU-16 (gastric); assay type: in vivo, nude mice; details: oral gavage
Source text: as §1

[5] = tested on: human multiple myeloma cells OPM-2; assay: Xenograft tumor model OPM-2 (multiple myeloma); assay type: in vivo, nude mice; details: oral gavage
Source text: as §1

[6] = tested on: human non-small cell lung cancer (NSCL) cells NCI-H460; assay: Xenograft tumor model NCI-H460 (NSCLC); assay type: in vivo, nude mice; details: oral gavage
Source text: as §1

[7] = tested on: human pancreatic cancer cells BxPC-3; assay: Xenograft tumor model BxPC-3 (pancreatic); assay type: in vivo, nude mice; details: oral gavage
Source text: as §1

SMILES: C[C@@H](Oc1ccc2[nH]nc(/C=C/c3cnn(CCO)c3)c2c1)c1c(Cl)cncc1Cl [Example 1, (R)-(E)-2-(4-(2-(5-(1-(3,5-Dichloropyridin-4-yl)ethoxy)-1H-indazol-3-yl)vinyl)-1H-pyrazol-1-yl)ethanol]
- IC50 [1]: 0.4 nM
- IC50 [2]: 0.6 nM
- TEC90 (concentration necessary to achieve 90% inhibition of phospho-Kdr) (Kdr): 252 nM
- TED50 (dose necessary to achieve 50% inhibition of phospho-Kdr) (Kdr): 1.34 mg/kg
- percent inhibition of tumor volume versus vehicle control ([3]; RT-112, 3 mg/kg BID for 21 days): 85.9%
- percent inhibition of tumor volume versus vehicle control ([3]; RT-112, 3 mg/kg QD for 21 days): 41.3%
- percent inhibition of tumor volume versus vehicle control ([4]; SNU-16, 3 mg/kg BID for 17 days): 83%
- percent inhibition of tumor volume versus vehicle control ([4]; SNU-16, 3 mg/kg QD for 17 days): 62%
- percent inhibition of tumor volume versus vehicle control ([5]; OPM-2, 3 mg/kg BID for 21 days): 84%
- percent inhibition of tumor volume versus vehicle control ([5]; OPM-2, 3 mg/kg QD for 21 days): 68%
- percent inhibition of tumor volume versus vehicle control ([6]; NCI-H460, 3 mg/kg BID for 17 days): 69%
- percent inhibition of tumor volume versus vehicle control ([6]; NCI-H460, 3 mg/kg QD for 17 days): 46%
- percent inhibition of tumor volume versus vehicle control ([7]; BxPC-3, 3 mg/kg BID for 21 days): 55%
- percent inhibition of tumor volume versus vehicle control ([7]; BxPC-3, 3 mg/kg QD for 21 days): 1%
